ChEMBL document CHEMBL1141241, “3,6-disubstituted coumarins as mechanism-based inhibitors of thrombin and factor Xa” (J Med Chem, 2005)

Tests used:
[1] = biological target: Prothrombin (Homo sapiens) (UniProt P00734); details: at 2 µM
Description: Inhibitory activity against human thrombin at 2 uM

[2] = biological target: Coagulation factor X (Homo sapiens) (UniProt P00742); experiment: Inhibitory activity against human FXa at 5 uM; values are per cent of control
[3] = Selectivity ratio for human thrombin over bovine trypsin

Chain of Coagulation factor X (Homo sapiens) (P00742 41-179 limits assumed): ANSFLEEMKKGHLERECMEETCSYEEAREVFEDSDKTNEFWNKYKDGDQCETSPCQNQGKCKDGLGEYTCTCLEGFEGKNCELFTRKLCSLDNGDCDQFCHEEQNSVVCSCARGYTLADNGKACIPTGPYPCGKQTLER
Chain of Coagulation factor X (Homo sapiens) (P00742 235-488 limits assumed): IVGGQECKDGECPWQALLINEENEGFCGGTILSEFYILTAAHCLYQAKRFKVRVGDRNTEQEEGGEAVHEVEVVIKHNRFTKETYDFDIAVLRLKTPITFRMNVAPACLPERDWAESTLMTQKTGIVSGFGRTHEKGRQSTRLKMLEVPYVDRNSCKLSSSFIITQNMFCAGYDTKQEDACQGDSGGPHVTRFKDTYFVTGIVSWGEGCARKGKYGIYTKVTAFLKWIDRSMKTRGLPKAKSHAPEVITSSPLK

residual activity [1] | residual activity [2] | Ratio [3] | SMILES
59% | 92% | – | O=C(Oc1ccccc1I)c1cc2cc(CCl)ccc2oc1=O
107% | 114% | – | O=C(Oc1cccc2cccnc12)c1cc2cc(CCl)ccc2oc1=O
8% | 33% | 55 | O=C(Oc1cccc(Br)c1)c1cc2cc(CCl)ccc2oc1=O
80% | 124% | – | O=C(Oc1cccc([N+](=O)[O-])c1)c1cc2cc(CCl)ccc2oc1=O
115% | 109% | – | O=C(Oc1cccc2ccccc12)c1cc2cc(CCl)ccc2oc1=O
78% | 134% | – | O=C(Oc1ccccc1Cl)c1cc2cc(CCl)ccc2oc1=O
95% | 110% | – | O=C(OCc1ccccc1)c1cc2cc(CCl)ccc2oc1=O
111% | 72% | – | Cc1ccc(OC(=O)c2cc3cc(CCl)ccc3oc2=O)cc1
107% | 102% | – | O=C(Oc1ccc(Cl)cc1)c1cc2cc(CCl)ccc2oc1=O
107% | 77% | – | O=C(Oc1cccc(Cl)c1)c1cc2ccccc2oc1=O
24% | 61% | – | O=C(Oc1cccc(F)c1)c1cc2cc(CCl)ccc2oc1=O
113% | 114% | – | O=C(Oc1cccnc1)c1cc2cc(CCl)ccc2oc1=O
109% | 113% | – | O=C(Oc1ccc2ccccc2c1)c1cc2cc(CCl)ccc2oc1=O
70% | 61% | – | Cc1ccc2oc(=O)c(C(=O)Oc3cccc(Cl)c3)cc2c1
100% | 125% | – | O=C(Oc1cccc(Cl)c1Cl)c1cc2cc(CCl)ccc2oc1=O
77% | 77% | – | O=C(Cc1cccc(Cl)c1)c1cc2cc(CCl)ccc2oc1=O
99% | 80% | – | O=C(Oc1ccc(I)cc1)c1cc2cc(CCl)ccc2oc1=O

residual activity [1] | residual activity [2] | Ratio [3] | SMILES
66% | 108% | – | COc1cccc(OC(=O)c2cc3cc(CCl)ccc3oc2=O)c1
66% | 134% | – | O=C(Oc1cccc(C(F)(F)F)c1)c1cc2cc(CCl)ccc2oc1=O
97% | 89% | – | O=C(Nc1cccc(Cl)c1)c1cc2cc(CCl)ccc2oc1=O
– | 39% | – | O=C(Oc1cc(Cl)ccc1Cl)c1cc2cc(CCl)ccc2oc1=O
107% | 60% | – | O=C(Sc1cccc(Cl)c1)c1cc2cc(CCl)ccc2oc1=O
10% | 29% | 25 | O=C(Oc1cccc(Cl)c1)c1cc2cc(CCl)ccc2oc1=O
101% | 109% | – | O=C(Oc1c(Cl)cccc1Cl)c1cc2cc(CCl)ccc2oc1=O
79% | 103% | – | Cc1ccccc1OC(=O)c1cc2cc(CCl)ccc2oc1=O
100% | 83% | – | O=C(c1cccc(Cl)c1)c1cc2cc(CCl)ccc2oc1=O
103% | 126% | – | COc1cc(Cl)cc(OC(=O)c2cc3cc(CCl)ccc3oc2=O)c1
27% | 73% | – | O=C(Oc1cccc(I)c1)c1cc2cc(CCl)ccc2oc1=O
98% | 125% | – | O=C(Oc1ccc2ncccc2c1)c1cc2cc(CCl)ccc2oc1=O
100% | 89% | – | O=C(Oc1ccccn1)c1cc2cc(CCl)ccc2oc1=O
91% | 82% | – | CC(=O)OCc1ccc2oc(=O)c(C(=O)Oc3cccc(Cl)c3)cc2c1
35% | 78% | – | Cc1cccc(OC(=O)c2cc3cc(CCl)ccc3oc2=O)c1
102% | 73% | – | O=C(Oc1cc(Cl)cc(Cl)c1)c1cc2cc(CCl)ccc2oc1=O
60% | 59% | – | O=C(Oc1ccccc1)c1cc2cc(CCl)ccc2oc1=O
